Results published in PubChem BioAssay (NCI).
Converted amounts (≈) assume the structure as drawn.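 Interpolation was linear, between the two tested concentrations surrounding the appropriate level; five concentrations were tested over 48 hours in 96-well plates. The concentration for 50% growth inhibition is given as GI50. TGI: concentration producing complete growth inhibition.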

Key:
Assay in all cases: growth of human tumour cells (NCI), 48 h
SW-620 colon = test system: SW-620 colon
LOX IMVI melanoma = test system: LOX IMVI melanoma
RPMI-8226 leukemia = test system: RPMI-8226 leukemia
K-562 leukemia = test system: K-562 leukemia
HL-60(TB) leukemia = test system: HL-60(TB) leukemia
NCI/ADR-RES ovarian = test system: NCI/ADR-RES ovarian
SF-268 CNS = test system: SF-268 CNS
SN12C renal = test system: SN12C renal
SF-539 CNS = test system: SF-539 CNS
NCI-H226 lung = test system: NCI-H226 lung

Row | Compound | TGI (SW-620 colon) | TGI (LOX IMVI melanoma) | TGI (RPMI-8226 leukemia) | TGI (K-562 leukemia) | TGI (HL-60(TB) leukemia) | TGI (NCI/ADR-RES ovarian) | TGI (SF-268 CNS) | TGI (SN12C renal) | TGI (SF-539 CNS) | TGI (NCI-H226 lung) | GI50 (SW-620 colon) | GI50 (LOX IMVI melanoma) | GI50 (RPMI-8226 leukemia) | GI50 (K-562 leukemia) | GI50 (SF-539 CNS) | GI50 (NCI-H226 lung) | GI50 (NCI/ADR-RES ovarian) | GI50 (SF-268 CNS) | GI50 (SN12C renal) | GI50 (HL-60(TB) leukemia)
1 | Clc1ccc(N=c2oc3ccccc3cc2-c2nc3ccccc3[nH]2)c(Cl)c1 | > 100 µM | > 100 µM | > 100 µM | > 100 µM | > 100 µM | > 100 µM | 89.1 µM |  |  |  |  |  |  |  |  |  |  |  |  | 
2 | NCCCCNCCCNC(=O)c1nc(-c2csc(CCN)n2)sc1Cl | > 100 µM |  | > 100 µM | > 100 µM | > 100 µM |  | > 100 µM | > 100 µM | > 100 µM | > 100 µM |  |  |  |  |  |  |  |  |  | 
3 | COc1cc(S(=O)(=O)Nc2ccc(C3=NNC(c4ccccc4)C3)cc2)ccc1F (configuration not stated) | > 100 µM | > 100 µM | 73.1 µM | > 100 µM |  | > 100 µM | > 100 µM |  | > 100 µM | 61.3 µM | 44.4 µM | 73.5 µM | 21.6 µM | 28.3 µM | 40 µM | 21.2 µM | 36.3 µM | 65.1 µM |  | 
4 | COc1cc(/C=C2/N=C(c3ccccc3)N(C3=NNC4(C(=O)N3)c3ccccc3-c3ccccc34)NC2=O)ccc1O | 73.6 mg/L | 66.8 mg/L | > 150 mg/L | > 150 mg/L | > 150 mg/L | > 150 mg/L | 66.7 mg/L | 56.8 mg/L | 59.3 mg/L |  | 31.1 mg/L | 32.3 mg/L | 50.2 mg/L | 48.6 mg/L | 28.7 mg/L |  | 45.8 mg/L | 27.5 mg/L | 25.6 mg/L (≈ 46 µM) | 51.2 mg/L (≈ 91.9 µM)
5 | C#CCn1c(=O)c(C#N)c(O)c2cc3ccccc3nc21 | > 100 µM | > 100 µM | > 100 µM | > 100 µM | > 100 µM | > 100 µM | > 31.6 µM | > 100 µM | > 100 µM | > 100 µM |  |  |  |  |  |  |  |  |  | 
6 | O=C(N[C@H]1c2ccsc2/C(=N/O)[C@H]1O)C(F)(F)F | > 100 µM | > 100 µM |  | > 100 µM | > 100 µM | > 100 µM | > 100 µM | > 100 µM | > 100 µM | > 100 µM |  |  |  |  |  |  |  |  |  | 
7 | CC1(Cl)CC2C(CC1Sc1nnnn1-c1ccccc1)C2(C)C (configuration not stated) | > 100 µM | > 100 µM | > 100 µM | > 100 µM | 49.4 µM |  | > 100 µM | > 100 µM | > 100 µM | > 100 µM |  |  |  |  |  |  |  |  |  | 
8 | CC(=O)Oc1ccc(C2COc3cc(OC(C)=O)c(OC(C)=O)cc3C2)cc1 (configuration not stated) | 35.9 µM | > 55.5 µM | 58.8 µM | 51.7 µM | 20.3 µM | 48.7 µM | 51.6 µM | 52 µM | 40.2 µM | 54.7 µM |  |  |  |  |  |  |  |  |  | 
